Source: PubChem BioAssay (NCI)
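Cells were grown in 96-well plates and exposed to each compound for 48 hours at five concentrations; endpoints were interpolated linearly between bracketing concentrations, or set to the highest concentration if not reached. Definition used: TGI = concentration required for complete inhibition of growth.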

What was measured:
Assay in all cases: NCI tumour cell line growth inhibition, 48 h
[1] = tested on: OVCAR-5 ovarian
[2] = tested on: IGROV1 ovarian
[3] = tested on: A549 NSCLC
[4] = tested on: U251 CNS
[5] = tested on: SK-OV-3 ovarian
[6] = tested on: OVCAR-3 ovarian
[7] = tested on: MDA-MB-435
[8] = tested on: MDA-MB-231 breast
[9] = tested on: TK-10 renal
[10] = tested on: SF-295 CNS
[11] = tested on: NCI-H23 lung
[12] = tested on: KM12 colon
[13] = tested on: MDA-N
[14] = tested on: PC-3 prostate
[15] = tested on: NCI-H522 lung
[16] = tested on: UACC-257 melanoma
[17] = tested on: UACC-62 melanoma
[18] = tested on: HS 578T breast
[19] = tested on: MALME-3M melanoma
[20] = tested on: HCT-15 colon
[21] = tested on: SR leukemia
[22] = tested on: EKVX NSCLC
[23] = tested on: SF-268 CNS
[24] = tested on: HT29 colon
[25] = tested on: HCC-2998 colon
[26] = tested on: LOX IMVI melanoma
[27] = tested on: 786-0 renal
[28] = tested on: K-562 leukemia
[29] = tested on: SNB-19 CNS
[30] = tested on: SK-MEL-5 melanoma
[31] = tested on: HL-60(TB) leukemia
[32] = tested on: SNB-75 CNS
[33] = tested on: OVCAR-4 ovarian
[34] = tested on: HOP-62 NSCLC
[35] = tested on: SN12C renal
[36] = tested on: HCT-116 colon
[37] = tested on: SK-MEL-28 melanoma
[38] = tested on: A498 renal
[39] = tested on: NCI-H460 lung
[40] = tested on: HOP-92 NSCLC
[41] = tested on: BT-549 breast
[42] = tested on: NCI/ADR-RES ovarian
[43] = tested on: DU-145 prostate
[44] = tested on: SK-MEL-2 melanoma
[45] = tested on: M14 melanoma
[46] = tested on: OVCAR-8 ovarian
[47] = tested on: COLO 205 colon
[48] = tested on: CCRF-CEM leukemia
[49] = tested on: RPMI-8226 leukemia
[50] = tested on: NCI-H226 lung
[51] = tested on: MOLT-4 leukemia
[52] = tested on: T-47D breast
[53] = tested on: UO-31 renal
[54] = tested on: RXF 393 renal
[55] = tested on: ACHN renal
[56] = tested on: SW-620 colon
[57] = tested on: SF-539 CNS
[58] = tested on: CAKI-1 renal
[59] = tested on: MCF7 breast

## CC(C)NCC(O)c1cc(OCc2ccccc2)c(OCc2ccccc2)cc1NC(=O)CCC(=O)O (configuration not stated)
[1]
  TGI: 30.6 µM
[2]
  TGI: 24.2 µM
[3]
  TGI: 24.5 µM
[4]
  TGI: 18.2 µM
[5]
  TGI: 29.2 µM
[6]
  TGI: 28.2 µM
[7]
  TGI: 17.4 µM
[8]
  TGI: 20.9 µM
[9]
  TGI: 22.5 µM
[10]
  TGI: 15.7 µM
[11]
  TGI: 26.5 µM
[12]
  TGI: 9.51 µM
[13]
  TGI: 5.97 µM
[14]
  TGI: 21.3 µM
[15]
  TGI: 11.7 µM
[16]
  TGI: 26.4 µM
[17]
  TGI: 8.69 µM
[18]
  TGI: 30.7 µM
[19]
  TGI: 28.6 µM
[20]
  TGI: 12.4 µM
[21]
  TGI: 9.01 µM
[22]
  TGI: 26.9 µM
[23]
  TGI: 22.7 µM
[24]
  TGI: 12.9 µM
[25]
  TGI: 6.47 µM
[26]
  TGI: 2.97 µM
[27]
  TGI: 20.9 µM
[28]
  TGI: 4.32 µM
[29]
  TGI: 28.3 µM
[30]
  TGI: 4.97 µM
[31]
  TGI: 15.4 µM
[32]
  TGI: 23.9 µM
[33]
  TGI: 24.8 µM
[34]
  TGI: 29.7 µM
[35]
  TGI: 24.3 µM
[36]
  TGI: 17.9 µM
[37]
  TGI: 9.37 µM
[38]
  TGI: 26 µM
[39]
  TGI: 3.71 µM
[40]
  TGI: 19 µM
[41]
  TGI: 31.1 µM
[42]
  TGI: 28.7 µM
[43]
  TGI: 25.8 µM
[44]
  TGI: 3.32 µM
[45]
  TGI: 3.48 µM
[46]
  TGI: 21.5 µM
[47]
  TGI: 4.01 µM
[48]
  TGI: 13 µM
[49]
  TGI: 8.65 µM
[50]
  TGI: 33.2 µM
[51]
  TGI: 14.8 µM
[52]
  TGI: 25.7 µM
[53]
  TGI: 15 µM
[54]
  TGI: 18.6 µM
[55]
  TGI: 13.1 µM
[56]
  TGI: 7.51 µM
[57]
  TGI: 30.9 µM
[58]
  TGI: 21.3 µM
[59]
  TGI: 19 µM

## O=c1c2cccnc2[nH]c2ccc3[nH]ncc3c12
[1]
  TGI: > 10 µM
[2]
  TGI: > 10 µM
[3]
  TGI: > 10 µM
[4]
  TGI: > 10 µM
[5]
  TGI: > 10 µM
[6]
  TGI: > 10 µM
[7]
  TGI: > 10 µM
[8]
  TGI: > 10 µM
[9]
  TGI: > 10 µM
[10]
  TGI: > 10 µM
[11]
  TGI: > 10 µM
[12]
  TGI: > 10 µM
[13]
  TGI: > 10 µM
[14]
  TGI: > 10 µM
[15]
  TGI: > 10 µM
[16]
  TGI: > 10 µM
[17]
  TGI: > 10 µM
[18]
  TGI: > 10 µM
[19]
  TGI: > 10 µM
[20]
  TGI: > 10 µM
[21]
  TGI: > 10 µM
[22]
  TGI: > 10 µM
[23]
  TGI: > 10 µM
[24]
  TGI: > 10 µM
[25]
  TGI: > 10 µM
[26]
  TGI: > 10 µM
[27]
  TGI: > 10 µM
[28]
  TGI: > 10 µM
[29]
  TGI: > 10 µM
[30]
  TGI: > 10 µM
[31]
  TGI: > 10 µM
[32]
  TGI: > 10 µM
[33]
  TGI: > 10 µM
[34]
  TGI: > 10 µM
[35]
  TGI: > 10 µM
[36]
  TGI: > 10 µM
[37]
  TGI: > 10 µM
[38]
  TGI: > 10 µM
[39]
  TGI: > 10 µM
[40]
  TGI: > 10 µM
[41]
  TGI: > 10 µM
[42]
  TGI: > 10 µM
[43]
  TGI: > 10 µM
[44]
  TGI: > 10 µM
[45]
  TGI: > 10 µM
[46]
  TGI: > 10 µM
[47]
  TGI: > 10 µM
[48]
  TGI: > 10 µM
[49]
  TGI: > 10 µM
[50]
  TGI: > 10 µM
[51]
  TGI: > 10 µM
[52]
  TGI: > 10 µM
[54]
  TGI: > 10 µM
[55]
  TGI: > 10 µM
[56]
  TGI: > 10 µM
[57]
  TGI: > 10 µM
[58]
  TGI: > 10 µM
[59]
  TGI: > 10 µM
